Laboratory results taken from patent publication US20130296434A1, “FORMULATIONS AND METHODS FOR TREATING AMYLOIDOSIS” (Kiacta Sarl, priority 2005, published 2013).
Read-outs that look alike come from different tables or passages of the source.

How the values were obtained:
[1] = Pharmacokinetic profile of a single oral dose of 800 mg PDS in subjects with varying degrees of renal impairment vs healthy volunteers; assay type: in vivo; details: human, plasma, single oral 800 mg; for AUC(0-inf): mean, only subjects with estimable elimination rate constant; for AUC(0-t): read-out: AUC0-Tlast
Method: An open-label, non-randomized, parallel group study to assess the pharmacokinetic profile of a single oral dose of 800 mg 1,3-propanedisulfonic acid disodium salt (PDS) in subjects with varying degrees of renal impairment as compared to healthy volunteers is conducted. Blood and urine samples are collected for 24 hours following dosing. Plasma and urine concentrations in 1,3-propanedisulfonic acid are determined using validated HPLC methods. […] Consequently, a decrease in dose appears to be necessary to maintain an acceptable systemic exposure in patients with impaired renal function.

[2] = tested on: subjects having secondary (AA) amyloidosis; assay: Randomized, double-blind, placebo-controlled 24-month efficacy and safety study of PDS in secondary (AA) amyloidosis; assay type: in vivo, human
Method: A multicenter, multinational, randomized, double-blind, placebo-controlled, and parallel-design study to assess the efficacy and safety of 1,3-propanedisulfonic acid disodium salt (PDS) in subjects having secondary (AA) amyloidosis is conducted. […] If ClCr decreases or increases to the next lower or higher range level, the dose regimen is adjusted accordingly. Subject medication is administered orally (capsule). Each patient is evaluated on 16 occasions, including on-site visits at months 0 (baseline), 1, 4, 8, 12, 16, 20 and 24.
The volume of urine is recorded in the case report form at study site and an aliquot of urine is sent to the central laboratory for determination of urinary creatinine. A blood sample is collected to measure serum creatinine. The creatinine clearance (ClCr) is calculated using the following formula and recorded in the case report form: […]
The creatinine clearance normalized for body surface area is calculated by dividing the creatinine clearance by the body surface area.
Subjects are classified into three categories based on a composite assessment of renal function at the end of the 24 month treatment period compared to baseline. […] Subjects are classified as “improved” if the following clinical milestones of improvement are met: ≧50% increase in ClCr and no clinical milestones of worsening. Subjects are classified as “stable” if none of the clinical milestones of worsening or improvement are met.
All subjects are categorized according to the evolution of their disease (“worse”, “stable”, or “improved”). This constitutes the primary efficacy endpoint for the study and is analyzed in the Intent-to-Treat (ITT) population according to two pre-specified statistical methodologies: 1) the Cochran-Mantel-Haenszel row mean scores test (CMH test) to compare the percentage of subjects who reach each category at the end of the study in comparison to their status at Baseline, and 2) a proportional hazards regression model (Cox analysis) to compare between treatment groups both the number of first “worse” events, as well as when they occur, thus making more use of all available data. Both methodologies are adjusted for the stratification of nephrotic status at Baseline (nephrotic vs non-nephrotic) as pre-specified.
The primary efficacy endpoint is a composite assessment of clinical improvement/worsening of renal function. At the end of the study, the subjects are classified into three categories, “Worse” and death (all causes), “Stable”, or “Improved”. […] The subjects are classified as “stable” if none of the clinical milestones of worsening or improvement are met. […] The term “End of Study” is defined as Month 24 for subjects who completed the study and as the last available measurement for the subjects who discontinued early.
The secondary efficacy endpoints are an assessment of clinical improvement/worsening of both renal and gastrointestinal functions. At the end of the study, subjects are classified into three categories based on their condition: worse, stable, or improved.
This parameter will be normalized for body surface area and the least-squares estimate of the within-subject slope will be calculated using all available creatinine clearance measurements. Although the study is for 2 years, the slope will be expressed as an annual rate of change.
Change from baseline to End of Study in Proteinuria and Creatinine Clearance will be analyzed as a secondary efficacy endpoint. The End of Study is defined as Month 24 for subjects who completed and as the last available visit for subjects who discontinued early. At Screening, proteinuria, creatinine clearance, and serum creatinine are to be collected from two distinct assessments which are to have been at least 1 week apart and within 3 months prior to study entry (Baseline visit). For the creatinine clearance parameter, the normalized value will be used.

[3] = Healthy, GFR >80 mL/min, n = 6, mean
[4] = Mild renal impairment, GFR 50-80 mL/min, n = 6, mean
[5] = Moderate renal impairment, GFR 30-50 mL/min, n = 4, mean
[6] = Severe renal impairment, GFR <30 mL/min, n = 6, mean
[7] = End of the Study, compared to placebo
[8] = composite renal assessment at end of 24 month treatment, 400-1200 mg BID by ClCr, p value=0.06

## O=S(=O)([O-])CCCS(=O)(=O)[O-].[Na+].[Na+] [PDS, 1,3-propanedisulfonic acid, disodium salt]
[1]; Healthy, GFR >80 mL/min
  AUC(0-inf): 5370 ng·h/mL
[1]; [3]
  Cmax: 1240 ng/mL
  AUC(0-t): 3160 ng·h/mL
[1]; Healthy, GFR >80 mL/min, n = 6, median
  Tmax: 30 min
[1]; Mild renal impairment, GFR 50-80 mL/min
  AUC(0-inf): 13000 ng·h/mL
[1]; [4]
  Cmax: 3060 ng/mL
  AUC(0-t): 9110 ng·h/mL
[1]; Mild renal impairment, GFR 50-80 mL/min, n = 6, median
  Tmax: 30 min
[1]; Moderate renal impairment, GFR 30-50 mL/min
  AUC(0-inf): 10700 ng·h/mL
[1]; [5]
  Cmax: 2100 ng/mL
  AUC(0-t): 9450 ng·h/mL
[1]; Moderate renal impairment, GFR 30-50 mL/min, n = 4, median
  Tmax: 30 min
[1]; Severe renal impairment, GFR <30 mL/min
  AUC(0-inf): 43100 ng·h/mL
[1]; [6]
  Cmax: 2210 ng/mL
  AUC(0-t): 29200 ng·h/mL
[1]; Severe renal impairment, GFR <30 mL/min, n = 6, median
  Tmax: 150 min
[2]; End of the Study
  mean difference in slope of creatinine clearance, treated vs. placebo: 4.7 mL/min/1.73 m^2/year
[2]; End of the Study, PDS treated subjects
  median time to the first worse event: 14.5 months
[2]; End of the Study, PDS-treated vs placebo
  reduction in the rate of loss of renal function (slope of creatinine clearance over time): 30.1%
[2]; [7]
  reduction of risk of dialysis/ESRD: 46%
  reduction of risk of doubling of serum creatinine: 59%
  reduction of risk of ≧50% decrease in creatinine clearance: 52%
[2]; End of the Study, patients progressing to dialysis
  median time to dialysis, longer than placebo: 5.3 months
[2]; End of the Study, patients with a doubling of SCr
  median time to doubling of serum creatinine, longer than placebo: 3.6 months
[2]; End of the Study, patients with a ≧50% decrease in CrCl
  median time to at least a 50% decrease in creatinine clearance, longer than placebo: 4.4 months
[2]; End of the Study, printed as reduction to this % of the risk for placebo
  risk of any worse event of renal decline or all-cause mortality, relative to the risk for placebo: 42%
[2]; End of the Study, treated vs placebo
  median time to the first worse event, longer than placebo: 6.4 months
[2]; PDS group N = 89, n 85
  creatinine clearance, Change from End of Study to Baseline, Median: −11.35 mL/min/1.73 m^2
[2]; PDS group N = 89, n 85, annual rate of change
  slope of creatinine clearance normalized for body surface area, Mean (S.E.): −10.9 (5.1) mL/min/1.73 m^2/year
[2]; PDS group N = 89, n 85, annual rate of change, P-value vs placebo 0.025
  slope of creatinine clearance normalized for body surface area, Median: −5.9 mL/min/1.73 m^2/year
[2]; PDS group N = 89, n 85, p-value vs placebo 0.058
  creatinine clearance, Change from End of Study to Baseline, Mean (S.E.): −14.68 (4.19) mL/min/1.73 m^2
[2]; [8]
  fewer subjects classified as worse compared to placebo: 13.4%
  more subjects stable or improved compared to placebo: 13.4%
[2]; end of the study
  estimated difference in CrCl change, PDS vs placebo: 7.7 mL/min/1.73 m^2
[2]; end of the study, PDS treated subjects
  mean difference in CrCl (baseline to end of study): −14.7±4.2 mL/min/1.73 m^2
